# Experimental data taken from US20080175891A1, “METHODS, COMPOSITIONS, AND FORMULATIONS FOR PREVENTING OR REDUCING ADVERSE EFFECTS IN A PATIENT” (priority 2007, published 2008).
# Assays:
# arrhythmias = assay: Prophylactic effect of AICA riboside treatment on arrhythmias (Examples VI and XIV); type: in vivo
# Text: Another disease caused by or able to cause restricted blood flow is myocardial arrhythmia. Although restricted blood flow can initiate the onset of arrhythmia, the precise cause is unknown. However, it is known that lipid peroxidation by oxygen radicals is arrhythmogenic. Since the latter are produced by granulocytes, the inhibition of granulocyte superoxide production by the method of the invention can be expected to control arrhythmia. In addition, mast cells are in higher concentration in areas of atherosclerosis. Suppression of their activation might reduce the release of other mediators of arrhythmias. Adenosine also has direct anti-arrhythmic effects on myocytes. […] Rapid firing of cells during arrhythmia causes increased net ATP catabolism and adenosine release.
# [1] = system: pentylene tetrazol-induced seizures; assay: Pentylene tetrazol-induced seizures (Example XIII); settings: in vivo
# Text: The adenosine released from neuronal cells when they are stimulated and break down ATP during seizure (epileptic) activity normally will feedback and suppress this seizure (epileptic) activity.
# [2] = system: patients with adenylosuccinase deficiency (autism); assay: Therapeutic trials in patients with adenylosuccinase deficiency (autism) (Example X); type: in vivo, human; settings: oral
# Protocol: Conditions potentially associated with chronic low adenosine may also be treated by compounds of the invention. These pathologic states include autism, insomnia, cerebral palsy, schizophrenia, and other neuropsychiatric symptoms. It is anticipated that doses ranging from 0.1 mg/kg/day up to about 200 mg/kg/day will be beneficial.
# mast cells = assay: Mast cell activation / degranulation; type: cell-based
# Text: As discussed in B. Benacerra and A. Unanue in Textbook of Immunology (Williams & Williams Baltimore/London, 1979), a key to suppressing allergic responses is to prevent the release of pharmacologically active substances by mast cells. Mast cells are large basophilic staining cells with extensive granules that contain substances, such as histamines, that are liberated by the mast cell during an allergic reaction and are required to support the allergic response. The release of these pharmacologically active substances present in mast cells is termed “degranulation.” Thus, chemicals that prevent degranulation should have a beneficial effect on reducing the severity of the allergic response. […] Mast cell activation also causes the release of prostaglandins and leukotrienses (non-preformed mediators) such as slow reactive substance of anaphylaxis.
# [3] = human, in vivo
# Text: Applicant also discovered that lower doses of AICA riboside were needed to achieve the desired blood concentration levels in anesthetized patients than in non-anesthetized patients. It appears that the dose needed in anesthetized patients may be about 20-50% less than the dose needed in non-anesthetized patients. Thus, a preferred dosage of AICA riboside (or prodrug) in a non-anesthetized patient or a patient anesthetized for a short time is larger than the preferred dosage for an anesthetized patient. Accordingly, dosages of from about 0.075 mg/kg/min to about 0.30 mg/kg/min are preferred in such cases, more preferably between about 0.10 mg/kg/min and about 0.15 mg/kg/min, and most preferably about 0.125 mg/kg/min.
# seizures = settings: experimental animal model; cited from earlier work
# [4] = system: bronchospasm induced by antigen sensitization; settings: guinea pig; cited from earlier work
smiles,measurement,setting,value
"NC(=O)c1ncn([C@@H]2O[C@H](CO)[C@@H](O)[C@H]2O)c1N [AICA riboside, 5-amino-1-β-D-ribofuranosyl-imidazole-4-carboxamide]",number of premature ventricular depolarizations,arrhythmias,decreased number
same,number of ventricular tachycardia episodes,arrhythmias,decreased number
same,incidence of pentylene tetrazol-induced seizures,[1],decreased incidence
same,latency to pentylene tetrazol-induced seizures,[1],prolonged latency
same,clinical or biochemical side effects,[2]; 5 mg/kg/day increased to 2×10 mg/kg/day,No clinical or biochemical side effects were observed
same,behaviour during therapy as described by the parent,"[2]; 5 mg/kg/day increased to 2×10 mg/kg/day, both patients",more pleasantly active and more easy to handle during therapy
same,clinical improvement,"[2]; 5 mg/kg/day increased to 2×5 and finally 2×10 mg/kg/day, two patients",clear-cut improvement in one of two patients
same,mast cell activation,mast cells,suppress mast cell activation
same,mast cell degranulation,mast cells,prevent mast cell degranulation
same,"dose needed in anesthetized patients, less than in non-anesthetized patients",[3],20-50%
same,inhibition of seizures,seizures,inhibitor of seizures
same,anti-allergic actions,[4],anti-allergic actions
"CC(=O)OC[C@H]1O[C@@H](c2nc(C(N)=O)c(N)[nH]2)[C@H](OC(C)=O)[C@@H]1OC(C)=O [Compound No. 2, 5-Amino-(2,3,5-tri-O-acetyl-beta-D-ribofuranosyl)imidazole-4-carboxamide]",melting point,,128 to 129 °C
"Nc1c(C(=O)NCCCCCCNC(=O)c2ncn([C@@H]3O[C@H](CO)[C@@H](O)[C@H]3O)c2N)ncn1[C@@H]1O[C@H](CO)[C@@H](O)[C@H]1O [Compound No. 68, N,N′-bis-(5-amino-1-β-D-ribofuranosylimidazole-4-carbonyl)-1,6-diaminohexane]",melting point,,181 to 185 °C
"NC(=O)c1ncn([C@@H]2O[C@H](CO)[C@@H](O)[C@H]2O)n1 [ribavirin, 1-β-D-ribofuranosyl-1H-1,2,4-triazole-3-carboxamide]",mast cell activation,mast cells,suppress mast cell activation
same,mast cell degranulation,mast cells,prevent mast cell degranulation
